In paper PMC10900215 (JACS Au, 2024):

How the values were obtained:
METTL3 [1] = molecular target: T1, METTL3 (Homo sapiens, UniProt Q86U44); assay: Cellular thermal shift assay (CETSA) in MOLM-13, METTL3; assay type: cell-based; details: MOLM-13, 54 °C
T1 construct: METTL3–14 degradation up to 70% of the endogenous level; endogenous in cells; host or cells: MOLM-13, PC3, DU145
Method: One million of MOLM-13 cells were suspended in 100 μL of PBS (10010023, Thermo Fisher Scientific) containing 2× protease inhibitor cocktail (11697498001, Roche), for each condition tested. Cells were incubated with compounds or DMSO control (1% (v/v)) for 1 h at 37 °C. They were then heat treated at 54 °C in a thermoblock for 3 min, followed by cooling to room temperature (3 min). Next, samples were lysed by threefreeze–thaw cycles in liquid nitrogen and centrifuge at 16000 g for 30 min, 4 °C. Equal volumes of control and tested samples (12 μL) were analyzed by Western blot. The changes in the amount of METTL3 protein (after normalization for β-actin and/or GAPDH) were monitored by performing densitometry in Image Studio Lite software and analyzed in GraphPad Prism 9.

Cereblon (CRBN) = molecular target: T2, Cereblon (CRBN) (Homo sapiens, UniProt Q96SW2); assay: Cellular thermal shift assay (CETSA) in MOLM-13, Cereblon; assay type: cell-based; details: MOLM-13, 54 °C
T2 construct: endogenous in cells; host or cells: MOLM-13

METTL3 [2] = molecular target: T3, METTL3 (Homo sapiens, UniProt Q86U44+Q96SW2); assay: In vitro ubiquitination assay, METTL3; assay type: biochemical; details: 2 μM compound, 30 °C, 2 h
T3 construct: Human full-length METTL3-METTL14 was expressed and purified as described above; Human full-length cereblon-DDB1 and 6xHis-CUL4A-6xHis-RBX1 were coexpressed; StrepII (N); GFP (N); TEV site (N); made in house; host or cells: baculovirus/Sf9 insect cells (METTL3-METTL14, cereblon-DDB1, CUL4A-RBX1)
Method: (§1) For the cell-free in vitro ubiquitination of METTL3-METTL14 purified E1, E2, ubiquitin, CUL4A-RBX1, Cereblon-DDB1, and METTL3-METTL14 were used. Human full-length METTL3-METTL14 was expressed and purified as described above. […] Purified recombinant human UBE1 E1 (E-305–025) was purchased from R&D Systems, UbcH5a E2 (23–029) from Merck and ubiquitin (SBB-UP0013) from South Bay Bio. For the ubiquitination reaction, components were mixed to final concentrations of 0.06 μM UBE1, 1.96 μM UbcH5a, 39 μM ubiquitin, 0.33 μM CUL4A-RBX1, 0.33 μM Cereblon-DDB1, 0.5 μM METTL3-METTL14, and different concentrations of compound 14 or me-14 (0, 2, 8, or 32 μM) in reaction buffer (50 mM Tris-HCl pH 7.6, 5 mM MgCl2, 0.2 mM CaCl2, 1 mM DTT, 100 mM NaCl, 0.01% BSA, 0.01% Triton X-100). The final reaction volume was 15 μL. After the addition of 2 mM ATP (or the equal volume of water for the control without ATP), the reaction mixture was incubated for 2 h at 30 °C. […] The signals were quantified by using the Image Studio Lite software. To determine the percentage of ubiquitinated METTL3, the fraction of unmodified METTL3 was calculated by dividing the signal of the band assigned to unmodified METTL3 by the signal of the area containing both the unmodified and (poly)ubiquitinated METTL3 and normalizing to the control without ATP. […]

METTL14 = assay: In vitro ubiquitination assay, METTL14; assay type: biochemical, human; details: 2, 8, 32 μM compound, 30 °C, 2 h
Method: as §1

T3 sequence (Q86U44 whole entry): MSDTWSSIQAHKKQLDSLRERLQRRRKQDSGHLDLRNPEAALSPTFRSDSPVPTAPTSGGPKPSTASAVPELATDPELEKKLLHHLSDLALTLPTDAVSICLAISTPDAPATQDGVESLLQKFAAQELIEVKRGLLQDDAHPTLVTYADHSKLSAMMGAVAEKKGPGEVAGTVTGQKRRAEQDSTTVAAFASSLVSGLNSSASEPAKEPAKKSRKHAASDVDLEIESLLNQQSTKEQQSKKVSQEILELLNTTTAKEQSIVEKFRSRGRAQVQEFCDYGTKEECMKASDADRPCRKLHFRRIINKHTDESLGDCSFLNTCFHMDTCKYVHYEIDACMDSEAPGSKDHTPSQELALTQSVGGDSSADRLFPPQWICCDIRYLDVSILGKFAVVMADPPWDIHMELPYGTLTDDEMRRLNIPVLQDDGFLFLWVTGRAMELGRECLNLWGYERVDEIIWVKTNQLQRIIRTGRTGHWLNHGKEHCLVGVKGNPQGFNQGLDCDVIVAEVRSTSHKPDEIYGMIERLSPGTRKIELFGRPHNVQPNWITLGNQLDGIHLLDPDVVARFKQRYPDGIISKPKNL
T3 sequence (Q9HCE5 whole entry partner): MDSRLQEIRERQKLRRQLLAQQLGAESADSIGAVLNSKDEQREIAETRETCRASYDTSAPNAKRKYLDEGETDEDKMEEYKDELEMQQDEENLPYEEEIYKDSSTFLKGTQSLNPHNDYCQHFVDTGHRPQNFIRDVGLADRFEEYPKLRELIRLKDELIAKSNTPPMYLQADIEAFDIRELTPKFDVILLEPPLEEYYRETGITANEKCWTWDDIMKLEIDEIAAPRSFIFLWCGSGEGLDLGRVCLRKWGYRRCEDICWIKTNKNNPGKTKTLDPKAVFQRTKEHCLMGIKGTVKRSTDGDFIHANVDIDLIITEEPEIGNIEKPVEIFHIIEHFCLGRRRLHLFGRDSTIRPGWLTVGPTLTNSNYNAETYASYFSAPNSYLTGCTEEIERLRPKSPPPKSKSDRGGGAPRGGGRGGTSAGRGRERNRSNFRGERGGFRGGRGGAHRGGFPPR
T3 sequence (Q96SW2 whole entry): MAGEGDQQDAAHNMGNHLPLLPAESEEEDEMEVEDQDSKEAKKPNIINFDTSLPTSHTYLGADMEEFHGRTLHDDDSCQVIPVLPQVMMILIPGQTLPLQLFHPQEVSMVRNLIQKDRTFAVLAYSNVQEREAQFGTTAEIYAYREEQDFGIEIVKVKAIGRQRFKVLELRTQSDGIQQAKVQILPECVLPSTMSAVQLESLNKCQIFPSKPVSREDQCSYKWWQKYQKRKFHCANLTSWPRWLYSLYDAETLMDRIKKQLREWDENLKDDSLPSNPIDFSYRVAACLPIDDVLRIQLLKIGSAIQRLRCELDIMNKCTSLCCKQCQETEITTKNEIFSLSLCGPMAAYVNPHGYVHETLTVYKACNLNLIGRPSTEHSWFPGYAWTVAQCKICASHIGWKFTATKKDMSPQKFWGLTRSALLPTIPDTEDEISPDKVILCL
T3 sequence (Q16531 whole entry partner): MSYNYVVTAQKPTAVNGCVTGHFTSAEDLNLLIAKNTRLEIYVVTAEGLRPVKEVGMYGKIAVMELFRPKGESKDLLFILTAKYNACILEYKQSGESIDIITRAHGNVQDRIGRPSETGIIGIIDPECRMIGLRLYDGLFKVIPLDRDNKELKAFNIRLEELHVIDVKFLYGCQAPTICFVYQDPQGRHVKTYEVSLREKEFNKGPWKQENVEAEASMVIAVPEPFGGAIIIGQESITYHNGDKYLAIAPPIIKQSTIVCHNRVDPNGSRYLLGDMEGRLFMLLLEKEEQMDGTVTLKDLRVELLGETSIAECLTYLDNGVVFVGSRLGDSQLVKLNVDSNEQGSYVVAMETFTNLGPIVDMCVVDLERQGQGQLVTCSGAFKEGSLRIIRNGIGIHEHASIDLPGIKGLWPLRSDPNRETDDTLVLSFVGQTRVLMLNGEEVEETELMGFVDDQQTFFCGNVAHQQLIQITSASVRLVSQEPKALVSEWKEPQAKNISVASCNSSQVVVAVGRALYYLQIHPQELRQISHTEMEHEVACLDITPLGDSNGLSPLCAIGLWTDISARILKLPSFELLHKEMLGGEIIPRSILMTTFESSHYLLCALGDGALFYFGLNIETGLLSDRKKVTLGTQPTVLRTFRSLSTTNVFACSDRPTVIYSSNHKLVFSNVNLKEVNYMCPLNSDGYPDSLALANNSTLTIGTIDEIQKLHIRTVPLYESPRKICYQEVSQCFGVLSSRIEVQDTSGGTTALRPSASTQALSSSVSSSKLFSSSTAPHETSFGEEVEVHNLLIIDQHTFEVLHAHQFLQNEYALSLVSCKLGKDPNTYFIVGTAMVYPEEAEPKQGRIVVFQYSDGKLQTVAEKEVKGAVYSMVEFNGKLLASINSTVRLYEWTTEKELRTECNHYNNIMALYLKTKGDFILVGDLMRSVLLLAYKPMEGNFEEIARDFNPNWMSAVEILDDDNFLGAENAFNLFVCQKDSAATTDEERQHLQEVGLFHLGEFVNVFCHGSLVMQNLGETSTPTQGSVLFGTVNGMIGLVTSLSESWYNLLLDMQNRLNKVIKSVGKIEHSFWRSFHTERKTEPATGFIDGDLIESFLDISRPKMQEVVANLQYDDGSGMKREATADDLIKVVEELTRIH
T3 sequence (Q13619 whole entry partner): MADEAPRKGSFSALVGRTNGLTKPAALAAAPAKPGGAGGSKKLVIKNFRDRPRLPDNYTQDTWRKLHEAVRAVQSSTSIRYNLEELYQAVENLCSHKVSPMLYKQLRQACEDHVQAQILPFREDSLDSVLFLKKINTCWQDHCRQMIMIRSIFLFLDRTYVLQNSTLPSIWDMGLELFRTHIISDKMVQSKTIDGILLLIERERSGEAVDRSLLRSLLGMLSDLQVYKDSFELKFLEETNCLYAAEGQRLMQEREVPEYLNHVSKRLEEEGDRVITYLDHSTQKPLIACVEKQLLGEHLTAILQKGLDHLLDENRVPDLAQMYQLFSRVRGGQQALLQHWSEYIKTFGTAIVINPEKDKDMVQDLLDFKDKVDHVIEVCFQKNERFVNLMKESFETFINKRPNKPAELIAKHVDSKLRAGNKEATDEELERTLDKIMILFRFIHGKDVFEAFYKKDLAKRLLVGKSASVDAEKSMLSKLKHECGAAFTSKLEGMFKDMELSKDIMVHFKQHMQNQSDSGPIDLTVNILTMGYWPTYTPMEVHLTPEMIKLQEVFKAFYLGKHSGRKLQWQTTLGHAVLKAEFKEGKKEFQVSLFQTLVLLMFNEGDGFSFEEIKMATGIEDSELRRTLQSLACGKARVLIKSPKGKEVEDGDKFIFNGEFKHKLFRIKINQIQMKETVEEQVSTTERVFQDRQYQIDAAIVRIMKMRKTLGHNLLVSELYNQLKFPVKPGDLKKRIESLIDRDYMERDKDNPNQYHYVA
T3 sequence (P62877 whole entry partner): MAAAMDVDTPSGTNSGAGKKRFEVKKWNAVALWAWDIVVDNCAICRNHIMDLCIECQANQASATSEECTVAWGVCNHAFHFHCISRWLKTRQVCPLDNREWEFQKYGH
T1 sequence (Q86U44 2-580 limits assumed): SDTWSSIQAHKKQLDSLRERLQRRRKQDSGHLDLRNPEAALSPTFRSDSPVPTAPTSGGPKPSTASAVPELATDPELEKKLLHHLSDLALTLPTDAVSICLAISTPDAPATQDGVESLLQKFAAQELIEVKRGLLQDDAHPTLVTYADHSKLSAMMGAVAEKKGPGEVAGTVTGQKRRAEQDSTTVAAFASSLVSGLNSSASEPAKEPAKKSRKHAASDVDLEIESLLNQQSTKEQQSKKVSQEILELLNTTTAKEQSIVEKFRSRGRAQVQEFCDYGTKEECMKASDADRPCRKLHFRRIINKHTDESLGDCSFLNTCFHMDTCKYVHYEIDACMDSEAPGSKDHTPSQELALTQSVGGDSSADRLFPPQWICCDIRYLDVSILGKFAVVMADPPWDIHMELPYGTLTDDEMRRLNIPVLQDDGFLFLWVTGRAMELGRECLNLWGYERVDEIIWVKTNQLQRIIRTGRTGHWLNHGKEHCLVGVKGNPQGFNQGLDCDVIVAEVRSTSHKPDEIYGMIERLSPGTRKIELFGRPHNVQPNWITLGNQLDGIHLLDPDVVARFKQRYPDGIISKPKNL
T1 sequence (Q9HCE5 whole entry partner): as the sequence (Q9HCE5 whole entry partner) above
T2 sequence (Q96SW2 whole entry): as the sequence (Q96SW2 whole entry) above

CC1(C)CCN(Cc2cc(F)c(N3CC(=O)NC4(CCN(c5cc(NCc6cccc(CNC(=O)CCCNc7cccc8c7C(=O)N(C7CCC(=O)NC7=O)C8=O)c6)ncn5)CC4)C3)cc2F)CC1 (stereo not shown) [Compound 14]
stabilization of METTL3 (CETSA) (METTL3 [1]): stabilize METTL3 in a concentration-dependent manner | stabilization of Cereblon (CETSA) (Cereblon (CRBN)): visible | ubiquitination level of METTL3 (METTL3 [2]): ~40% | ubiquitination of METTL14 (METTL14): not as pronounced
